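Cultured in 96-well plates, cells were exposed to test compound for 48 hours across five concentrations. TGI: total growth inhibition.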
What was measured:
Test in all cases: DTP human tumour cell line panel, 48 h
MALME-3M melanoma = system: MALME-3M melanoma
ACHN renal = system: ACHN renal
T-47D breast = system: T-47D breast
SF-268 CNS = system: SF-268 CNS
SK-MEL-5 melanoma = system: SK-MEL-5 melanoma
RPMI-8226 leukemia = system: RPMI-8226 leukemia
NCI-H226 lung = system: NCI-H226 lung
A549 NSCLC = system: A549 NSCLC
SR leukemia = system: SR leukemia
HL-60(TB) leukemia = system: HL-60(TB) leukemia

Row | SMILES | TGI (MALME-3M melanoma) [µM] | TGI (ACHN renal) [µM] | TGI (T-47D breast) [µM] | TGI (SF-268 CNS) [µM] | TGI (SK-MEL-5 melanoma) [µM] | TGI (RPMI-8226 leukemia) [µM] | TGI (NCI-H226 lung) [µM] | TGI (A549 NSCLC) [µM] | TGI (SR leukemia) [µM] | TGI (HL-60(TB) leukemia) [µM]
1 | O=C1CC(=O)NC(=NN2C(=O)/C(=C/c3ccc(Cl)cc3)N=C2c2ccccc2)N1 | 33.4 | 52.4 | > 100 | 34.2 | 32 | 58.2 | 31.5 | 30 | 21.3 | 
2 | O=C1NC2=NN=C(c3ccc(Br)cc3)CN2NC12c1ccccc1-c1ccccc12 | > 100 | > 100 |  | > 100 | > 100 |  | > 100 | > 100 | > 100 | 
3 | Cc1cc(OC(=O)c2c(C)cc(OC(=O)c3c(C)cc(O)cc3O)cc2O)cc(O)c1C(=O)O | > 100 | > 100 |  | > 100 | > 100 | > 100 |  | > 100 |  | > 100
4 | CC(=O)c1sc2c(c1O)c(=O)n(-c1ccccc1)c(=S)n2-c1ccccc1 | > 100 |  | > 100 | > 100 | > 100 | > 100 | > 100 | > 100 |  | > 100
5 | COc1cccc(-c2[nH]c3cc4c(cc3c(=O)c2C(=O)O)OCO4)c1 |  | > 100 | > 100 |  | > 100 | > 100 | > 100 | > 100 | > 100 | 
6 | O=C1c2ccccc2-n2c1nc1ccc(Cl)cc1c2=O |  | > 100 | > 100 |  | > 100 | > 100 | > 100 | > 100 | > 100 | 
7 | Nc1ncnc2c1ncn2CCOC(c1ccccc1)P(=O)(O)O (configuration not stated) | > 100 | > 100 |  | > 100 | > 100 |  | > 100 | > 100 | > 100 | > 100
8 | C/C(=N\Nc1nc2ccccc2n1C)c1ccc2ccccc2n1 | 16.3 | > 54.5 |  | 19.2 | 5.43 |  | 6.83 | 16.1 | 3.73 | 
9 | N#C[C@H](C(=O)c1ccccc1F)c1nc2ccccc2[nH]1 |  | > 100 | > 100 | > 100 |  | > 100 | > 100 | > 100 | > 100 | 
10 | Cn1c(SCc2c[nH]c3ccccc23)nnc1-c1ccc(Cl)cc1Cl | 45.8 | 96.8 | 43.2 | > 100 | 27.5 | 27.1 |  | 48.5 | 16.6 | 25.6
11 | CCCCCC(/C=C/[C@@H]1[C@@H](C(O)CCCCCC(=O)OC)C(=O)C[C@H]1O[Si](C)(C)C(C)(C)C)OCOCCOC (some centres not stated) | 30.6 | 28.6 | 51.8 | 28.4 | 30.5 | > 25.7 | 34.9 | > 68.2 | > 31.6 | 
12 | COc1cc(S(=O)(=O)Nc2ccc(-c3csc(/N=C\c4cccs4)n3)cc2)ccc1Cl | > 100 | > 100 | 62.8 | > 100 | > 100 | > 100 | > 100 | > 100 | 52.2 | 
13 | CCN(CC)C(=S)S | 60.4 | > 100 |  | > 100 | > 43.6 | > 100 | > 100 |  |  | 33.3
14 | CC(=O)O[C@H]1C[C@@H](OC(C)=O)[C@@](C)(O)[C@@H]2[C@@H](OC(C)=O)[C@@]3(O)[C@H](/C=C(/CCl)[C@H]4O[C@H]4[C@@H](OC(C)=O)[C@@]12C)OC(=O)[C@@H]3C | > 25 | > 25 | > 25 | > 25 | > 25 | > 25 | > 25 | > 25 |  | 
15 | Brc1ccc(-c2nc(-c3ccc(Br)cc3)n(-c3ccccc3)n2)cc1 |  | > 100 | > 100 | > 100 | > 100 |  | > 100 | > 100 |  | > 100
16 | OC1CSCCSCCCSCCSC1 |  | > 100 | > 100 | > 100 | > 100 | > 100 | > 100 | > 100 |  | > 100
17 | N=C(N)c1ccc(N=Nc2c(O)ccc3cc(O)ccc23)cc1 | > 100 | > 100 |  | > 100 | > 100 | > 100 | > 100 | > 100 | > 100 | > 100
18 | CCOP(=O)(/C=C/n1cnc2c(=O)n(C(C)=O)c(N)nc21)OCC |  | > 100 | > 100 | > 100 | > 100 | > 100 | > 100 | > 100 |  | > 100
19 | Cn1c(=O)n2n(c1=O)C(S(=O)c1ccccc1)C2 (configuration not stated) |  | > 100 |  | > 100 | > 100 | > 100 |  | > 100 | > 100 | 
20 | CC(=O)N1c2ccccc2[C@H]2CCc3c([nH]c4ccccc34)[C@H]21 | 30.7 | > 100 | 96.9 | 52.3 | 26.2 | 43.5 | 36.7 | 67.3 |  | 34.2
21 | Nc1ncnc2c1N=C(c1ccccc1)CC(c1ccccc1)N2 (configuration not stated) | > 100 | > 100 | > 100 | > 100 |  | > 100 | > 100 | > 100 | > 100 | 
22 | O=C1c2ccccc2/C=C\C(c2ccccc2)=N/N1c1ccccc1Cl | 71.4 | > 100 |  | > 100 | 26.3 | 80.5 | > 100 | 60.5 |  | 54.8
23 | CC(=O)OC1CC[C@@]2(C)C(=CC[C@@H]3[C@@H]2CC[C@]2(C)C(OC(C)=O)[C@H](n4ccnc4)C[C@@H]32)C1 (some centres not stated) | 28.3 | > 100 |  | > 100 | 30.3 | 55.2 | > 100 | > 100 | 36.7 | 35.6
24 | CC(N)=O.[Cl][Pt][Cl].[NH-]c1ccn(C2OC(CO)C(O)C2O)c(=O)n1 (configuration not stated) | > 100 | > 100 | > 100 | > 100 | > 100 | > 100 | > 100 | > 100 | > 100 | 
25 | Nc1c(C(=O)c2ccccc2)nnc2ccccc12 | 79.1 | 65.4 |  | > 100 | 32.7 | > 100 | > 100 | > 100 | > 100 | 
26 | Nc1ncc(Sc2ccccc2C(=O)O)s1 |  | > 100 | > 100 | > 100 | > 100 | > 100 | > 100 | > 100 | > 100 | > 100
